Reference: patent US12624018B1, “Inhibitors of RIPK2 and medical uses thereof” (Odyssey Therapeutics, Inc., priority 2022, dated 2026)
Counter-ions that a name gives are not always drawn. Like-named read-outs stand apart in the source and are kept apart here.

Assays:
human NOD2 signaling = experiment: Inhibition of human NOD2 signaling in HEK-Blue-hNOD2 cells (L18-MDP stimulated, SEAP reporter); type: cell-based; conditions: NOD2 ligand stimulation, SEAP reporter, read-out: hNOD2 IC50
Method: Materials: Human NOD32-expressing 1TEK293 cells, HEK-Blue™-hNOD2 cells, were developed by Invivogen (catalogue number: hkb-hnod2) using co-transfection of the human NOD2 gene and an optimized secreted embryonic alkaline phosphatase (SEAP) reporter gene into HTEK293 cells. The cell maintenance medium consisted of DMEM (Giboc, 21063-029), heat inactivated FBS, penicillin (100 U/mL), streptomycin (100 μg/mL), Normocin (100 μg/mL), Blasticidin (30 μg/mL), and Zeocin (100 μg/mL). HEK-Blue™-hNOD2 cells were transferred to assay medium consisting of DMEM (Giboc, 21063-029), heat inactivated FBS, penicillin (100 U/mL) and streptomycin (100 μg/mL) prior to stimulation. Stimulation with a NOD2 ligand, L18-MDP (Invivogen, catalogue number: tlrl-lmdp) activated NF-κB and AP-1 which induced the production of SEAP. Levels of SEAP were determined with HEK-Blue™ Detection (referred to as QUANTI-Blue solution), a cell culture medium that allows for real-time detection of SEAP. QUANTI-Blue solution was prepared by adding 1 mL of QB reagent and 1 mL of QB buffer to 98 mL of sterile H2O. Test compounds were prepared into a 10 mM DMSO solution and were serially diluted into 10 points using a 3-fold dilution in a 384 well plate using a TECAN EVO200.
Method: In a 384 well plate, 40 nL of test compound was dispensed using Echo550. HEK-Blue™-hNOD2 cells (Invivogen) were prepared into a cell suspension and 40 μL of the cell suspension (12500 cells per well) was dispensed into the 384 well plate. To activate NOD2 signaling, 40 nL of L18-MDP (final concentration of 0.5 ng/mL) was added and the plate was incubated at 37° C. in a CO2 incubator for 24 hours. After the 24-hour incubation, 5 μL of the induced HEK-Blue hNOD2 cell supernatant was transferred to a new 384-well plate, centrifuged, and 45 μL of QUANTI-Blue solution was added per well and incubated for 3 hours at 37° C. SEAP levels were measured using an Ensight at 620 nm. Percent inhibition of NOD2 signaling was determined using the following equation: (high control−test compound signal)/(High control−low control)×100. The reaction high control was determined using wells with DMSO, cells, L18-MDP, and QUANTI-Blue solution. The reaction low control was determined using wells with DMSO, cells, and QUANTI-Blue solution. 4-parametric curve fit was used to determine the test compound concentration that results in 50% reduction of L18-MDP-driven human NOD2 signaling.
Using the assay described above, inhibition of hNOD2 signaling was also evaluated for GSK 2983559 (Haile at al., J. Med. Chem. 2019, 62, 14, 6482-6494), a known RIPK2 kinase inhibitor: […]

RIPK2 enzyme = biological target: T1, RIPK2 enzyme (Homo sapiens, UniProt O43353); experiment: RIPK2 inhibition (ADP-Glo Kinase Assay); type: biochemical; conditions: RIPK2 5 nM, ATP 150 μM, MBP substrate, read-out: RIPK2 IC50
T1 construct: purchased Carna 09-128
Summary of the method: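 Human RIPK2 (5 nM) preincubated with compound 30 min at room temperature in 50 mM HEPES pH 7.5, 10 mM MgCl2, 2 mM DTT, 1 mM EGTA, 0.01% Brij-35, 0.05% BSA; native swine MBP as substrate. ADP formed quantified by ADP-Glo luminescence; percent inhibition relative to DMSO and no-enzyme controls.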

[1] = Homo sapiens, HEK-Blue hNOD2, HEK-Blue-hNOD2 cells

T1 sequence (O43353 1-299 limits assumed): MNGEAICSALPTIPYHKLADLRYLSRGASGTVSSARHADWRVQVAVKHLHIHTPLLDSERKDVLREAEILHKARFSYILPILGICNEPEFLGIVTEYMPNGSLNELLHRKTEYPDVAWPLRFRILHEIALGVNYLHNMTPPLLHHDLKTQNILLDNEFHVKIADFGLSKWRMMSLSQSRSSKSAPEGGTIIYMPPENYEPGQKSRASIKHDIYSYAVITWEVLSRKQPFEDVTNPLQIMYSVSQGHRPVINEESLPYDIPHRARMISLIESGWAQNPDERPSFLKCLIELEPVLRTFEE

| IC50 (human NOD2 signaling; HEK-Blue-hNOD2 cells) [nM] | IC50 (RIPK2 enzyme) [nM] | IC50 (human NOD2 signaling; [1]) [nM] | Structure (SMILES) |
| --- | --- | --- | --- |
| – | < 2.5 | 9.8 | CNC(=O)Cc1ccc2nccc(Oc3cc(F)c(CC(=O)Nc4cnn(C(C)(C)C)c4)cc3C)c2c1 [Compound 567, N-(1-(tert-butyl)-1H-pyrazol-4-yl)-2-(2-fluoro-5-methyl-4-((6-(2-(methylamino)-2-oxoethyl)quinolin-4-yl)oxy)phenyl)acetamide formic acid salt] |
| – | 21 | – | CN(C)C(=O)c1ccc2ncnc(Oc3ccc(CC(=O)Nc4cnn(C(C)(C)C)c4)c(F)c3)c2c1 [Compound 26, 4-(4-(2-((1-(tert-butyl)-1H-pyrazol-4-yl)amino)-2-oxoethyl)-3-fluorophenoxy)-N,N-dimethylquinazoline-6-carboxamide] |
| – | < 2.5 | – | Cc1cc(CC(=O)Nc2cnn(C(C)(C)C)c2)c(F)cc1Oc1ccnc2ccc(C(=O)N3CC(C#N)C3)cc12 [Compound 371, N-(1-(tert-butyl)-1H-pyrazol-4-yl)-2-(4-((6-(3-cyano-azetidine-1-carbonyl)quinolin-4-yl)oxy)-2-fluoro-5-methyl-phenyl) acetamide] |
| – | < 2.5 | – | CC(=O)N1CCC(Oc2ccc3nccc(Oc4ccc(CC(=O)Nc5cnn(C(C)(C)C)c5)c(F)c4)c3c2)CC1 [Compound 151, 2-(4-((6-((1-acetyl-piperidin-4-yl)oxy)quinolin-4-yl)oxy)-2-fluoro-phenyl)-N-(1-(tert-butyl)-1H-pyrazol-4-yl)acetamide] |
| – | 4.2 | – | CN1CCC(Oc2ccc3ncnc(Oc4ccc(CC(=O)Nc5cnn(C(C)(C)C)c5)c(F)c4)c3c2)CC1 [Compound 19, N-(1-(tert-butyl)-1H-pyrazol-4-yl)-2-(2-fluoro-4-((6-((1-methyl-piperidin-4-yl)oxy)quinazolin-4-yl)oxy)phenyl) acetamide] |
| – | < 2.5 | – | Cc1cc(CC(=O)Nc2cnn(C(C)(C)C)c2)ccc1Oc1ccnc2ccc(OC3CCNC(C)C3)cc12 (racemic) [Compound 221, N-(1-(tert-butyl)-1H-pyrazol-4-yl)-2-(3-methyl-4-((6-((-2-methyl-piperidin-4-yl)oxy)quinolin-4-yl)oxy)phenyl) acetamide] |
| – | < 2.5 | – | Cc1c(Oc2ccnc3ccc(OC4CCNCC4)cc23)ccc(CC(=O)Nc2cnn(C(C)(C)C)c2)c1F [Compound 102, N-(1-(tert-butyl)-1H-pyrazol-4-yl)-2-(2-fluoro-3-methyl-4-((6-(piperidin-4-yloxy)quinolin-4-yl)oxy)phenyl) acetamide] |
| – | < 2.5 | – | Cc1cc(CC(=O)Nc2cnn(C(C)(C)C)c2)c(F)cc1Oc1ccnc2ccc(CC3CCNCC3)cc12 [Compound 408, N-(1-(tert-butyl)-1H-pyrazol-4-yl)-2-(2-fluoro-5-methyl-4-((6-(piperidin-4-ylmethyl)quinolin-4-yl)oxy)phenyl)acetamide] |
| – | < 2.5 | – | Cc1cc(CC(=O)Nc2cnn(C(C)(C)C)c2)c(F)cc1Oc1ccnc2ccc(C(=O)N3CCC(O)C3)cc12 (single isomer, unassigned) [Compound 376, N-(1-(tert-butyl)-1H-pyrazol-4-yl)-2-(2-fluoro-4-((6-(3-hydroxy-pyrrolidine-1-carbonyl)quinolin-4-yl)oxy)-5-methylphenyl) acetamide] |
| – | < 2.5 | – | Cc1cc(CC(=O)Nc2cnn(C(C)(C)C)c2)c(F)cc1Oc1ccnc2ccc(C(=O)N3CC(N)C3)cc12 [Compound 374, 2-(4-((6-(3-amino-azetidine-1-carbonyl)quinolin-4-yl)oxy)-2-fluoro-5-methyl-phenyl)-N-(1-(tert-butyl)-1H-pyrazol-4-yl)acetamide] |
| – | < 2.5 | – | CC(C)(C)n1cc(NC(=O)Cc2ccc(Oc3ccnc4ccc(S(=O)(=O)N5CCNCC5)cc34)cc2F)cn1 [Compound 128, N-(1-(tert-butyl)-1H-pyrazol-4-yl)-2-(2-fluoro-4-((6-(piperazin-1-ylsulfonyl)quinolin-4-yl)oxy)phenyl)acetamide] |

Second part, the compound before the results:

| Structure (SMILES) | IC50 (human NOD2 signaling; HEK-Blue-hNOD2 cells) [nM] | IC50 (RIPK2 enzyme) [nM] | IC50 (human NOD2 signaling; [1]) [nM] |
| --- | --- | --- | --- |
| Cc1c(Oc2ccnc3ccc(S(=N)(=O)C(C)C)cc23)ccc(CC(=O)Nc2cnn(C(C)(C)C)c2)c1F (single isomer, unassigned) [Compound 538, N-(1-(tert-butyl)-1H-pyrazol-4-yl)-2-(2-fluoro-3-methyl-4-((6-(propan-2-ylsulfonimidoyl)quinolin-4-yl)oxy)phenyl) acetamide] | 0.2 | < 2.5 | – |
| CNC(=O)c1ccc2nccc(Oc3c(C)cc(CC(=O)Nc4cnn(C56CC(C5)C6)c4)cc3C)c2c1 [Compound 588, 4-(4-(2-((1-(bicyclo[1.1.1]pentan-1-yl)-1H-pyrazol-4-yl)amino)-2-oxoethyl)-2,6-dimethylphenoxy)-N-methylquinoline-6-carboxamide] | – | < 2.5 | 36 |
| [2H]C([2H])([2H])NC(=O)c1ccc2nccc(Oc3cc(F)c(CC(=O)Nc4cnn(C56CC(C5)C6)c4)cc3Cl)c2c1 [Compound 511, 4-(4-(2-((1-(bicyclo[1.1.1]pentan-1-yl)-1H-pyrazol-4-yl)amino)-2-oxoethyl)-2-chloro-5-fluorophenoxy)-N-(methyl-d3)quinoline-6-carboxamide] | – | < 2.5 | 8 |
| [2H]C([2H])([2H])NC(=O)c1cc2c(Oc3c(C)cc(CC(=O)Nc4cnn(C(C)(C)C)c4)cc3Cl)ccnc2cc1F [Compound 586, 4-(4-(2-((1-(tert-butyl)-1H-pyrazol-4-yl)amino)-2-oxoethyl)-2-chloro-6-methylphenoxy)-7-fluoro-N-(methyl-d3)quinoline-6-carboxamide] | – | < 2.5 | 0.6 |
| Cc1cc(CC(=O)Nc2cnn(C(C)(C)C)c2)ccc1Oc1ccnc2ccc(C3(C(N)=O)CCC3)cc12 [Compound 604, 1-(4-(4-(2-((1-(tert-butyl)-1H-pyrazol-4-yl)amino)-2-oxoethyl)-2-methylphenoxy)quinolin-6-yl)cyclobutane-1-carboxamide] | – | < 2.5 | 12.4 |
| Cc1cc(CC(=O)Nc2cnn(C(C)(C)C)c2)c(F)cc1Oc1ccnc2ccc(C(=O)N(C)C3(C)CC3)cc12 [Compound 519, 4-(4-(2-((1-(tert-butyl)-1H-pyrazol-4-yl)amino)-2-oxoethyl)-5-fluoro-2-methylphenoxy)-N-methyl-N-(1-methylcyclopropyl)quinoline-6-carboxamide] | – | < 2.5 | 0.6 |
| CNC(=O)c1cc2c(Oc3cc(F)c(CC(=O)Nc4cnn(C(C)(C)C)c4)cc3C)ccnc2cc1C [Compound 564, 4-(4-(2-((1-(tert-butyl)-1H-pyrazol-4-yl)amino)-2-oxoethyl)-5-fluoro-2-methylphenoxy)-N,7-dimethylquinoline-6-carboxamide] | – | < 2.5 | 10.8 |
| CC(C)(C)n1cc(NC(=O)Cc2ccc(Oc3ccnc4ccc(S(C)(=N)=O)cc34)c(Cl)c2)cn1 (stereo not drawn) [Compound 90, N-(1-(tert-butyl)-1H-pyrazol-4-yl)-2-(3-chloro-4-((6-(S-methylsulfonimidoyl)quinolin-4-yl)oxy)phenyl)acetamide] | – | 2.9 | – |
| Cc1cc(CC(=O)Nc2cnn(C(C)(C)C)c2)c(F)cc1Oc1ccnc2ccc(S(=O)(=O)N3C[C@@H](C)O[C@@H](C)C3)cc12 [Compound 389, N-(1-(tert-butyl)-1H-pyrazol-4-yl)-2-(4-((6-(((2R,6S)-2,6-dimethylmorpholino)sulfonyl)quinolin-4-yl)oxy)-2-fluoro-5-methylphenyl)acetamide] | – | 2.9 | – |
| Cc1cc(CC(=O)Nc2cnn(C(C)(C)C)c2)ccc1Oc1ccnc2ccc(OCC(C)O)cc12 (single isomer, unassigned) [Compound 224, N-(1-(tert-butyl)-1H-pyrazol-4-yl)-2-(4-((6-(2-hydroxy-propoxy)quinolin-4-yl)oxy)-3-methylphenyl) acetamide] | – | < 2.5 | – |
| CCOc1cc2nccc(Oc3ccc(CC(=O)Nc4cnn(C(C)(C)C)c4)cc3C)c2cc1S(C)(=O)=O [Compound 217, N-(1-(tert-butyl)-1H-pyrazol-4-yl)-2-(4-((7-ethoxy-6-(methylsulfonyl)quinolin-4-yl)oxy)-3-methylphenyl) acetamide] | – | < 2.5 | – |
